The subject of series [1] is Mycobacterium tuberculosis. The series is described as follows: Antimycobacterial activity against replicating Mycobacterium tuberculosis H37Rv incubated for 1 week by MABA method. It counts as functional. As to conditions: 168 h.
In a further series the test system is RAW264.7. The series can be described thus: Cytotoxicity against mouse RAW264.7 cells assessed as reduction in cell viability at 25 uM after 48 hrs by MTT assay relative to control. It counts as cell-based. As to conditions: raw264.7, 48 h. (Tetrazolium assays rely on reduction of a dye to a coloured formazan, in cell work by metabolically active cells.)
In series [2] the test system is Mycobacterium tuberculosis. The series can be described thus: Antimycobacterial activity against replicating Mycobacterium tuberculosis H37Rv incubated for 1 week in presence of verapamil by MABA method. It counts as functional. As to conditions: 168 h.
The test system of series [3] is Mycobacterium tuberculosis. The series can be described thus: Antimycobacterial activity against replicating Mycobacterium tuberculosis H37Rv incubated for 1 week in presence of piperine by MABA method. Format: functional. As to conditions: 168 h. On the technique in general: Alamar Blue is a resazurin reagent that responds to reducing activity.
For series [4], the system named is Mycobacterium tuberculosis. The series can be described thus: Antibiofilm activity against Mycobacterium tuberculosis H37Rv assessed as log reduction in bacterial load at 10 ug/ml incubated for 1 week by MPN assay. Format: functional.
Series [5] concerns Mycobacterium marinum. The series is described as follows: Antimycobacterial activity against Mycobacterium marinum ATCC BAA-535 infected in zebrafish at 5 mg/kg, po treated for 7 days by MPN assay. It counts as functional.
The test system of series [6] is Mycobacterium tuberculosis. The series is described as follows: Antimycobacterial activity against Mycobacterium tuberculosis H37Rv dormant stage assessed as log reduction in bacterial load at 10 ug/ml incubated for 7 days. It counts as functional.
The target of series [7] is T1, Glutamate racemase (Mycobacterium tuberculosis (strain ATCC 25618 / H37Rv)) (UniProt P9WPW9).
T1 sequence (whole entry): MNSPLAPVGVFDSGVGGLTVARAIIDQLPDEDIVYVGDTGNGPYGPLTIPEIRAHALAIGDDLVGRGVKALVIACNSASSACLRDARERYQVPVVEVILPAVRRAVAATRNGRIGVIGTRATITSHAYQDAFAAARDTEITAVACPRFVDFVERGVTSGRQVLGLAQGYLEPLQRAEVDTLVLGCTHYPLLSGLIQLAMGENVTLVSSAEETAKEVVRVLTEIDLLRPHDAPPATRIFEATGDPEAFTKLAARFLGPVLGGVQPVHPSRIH
The series can be described thus: Stabilization of Mycobacterium tuberculosis glutamate racemase assessed as melting temperature by sypro-orange dye-based fluorescence assay (reference value: 43.7 degreeC).

The target of series [8] is T1, Glutamate racemase (Mycobacterium tuberculosis (strain ATCC 25618 / H37Rv)). The series is described as follows: Stabilization of Mycobacterium tuberculosis glutamate racemase bound to D-glutamate assessed as melting temperature by sypro-orange dye-based fluorescence assay (reference value: 45.1 degreeC).
The subject of series [9] is Mycobacterium tuberculosis. The series can be described thus: Bactericidal activity against Mycobacterium tuberculosis H37Rv dormant stage up to 21 days by time kill assay. Particulars: 504 h. It counts as functional.
In series [10] the test system is Mycobacterium tuberculosis. The series can be described thus: Bactericidal activity against Mycobacterium tuberculosis H37Rv dormant stage at 5 to 20 uM by time kill assay. It counts as functional, organism-based. Particulars: TDE = time-dependent effect.
For series [11], the system named is Mycobacterium marinum. The series can be described thus: Antimycobacterial activity against Mycobacterium marinum ATCC BAA-535 infected in zebrafish at 10 mg/kg, po treated for 7 days by MPN assay. It counts as functional.
Series [12] relates to Mycobacterium tuberculosis. The series is described as follows: Ratio of MIC for Mycobacterium tuberculosis H37Rv to MIC for Mycobacterium tuberculosis H37Rv in presence of verapamil. It counts as functional.
Series [13] has as its target T1, Glutamate racemase (Mycobacterium tuberculosis (strain ATCC 25618 / H37Rv)). The series can be described thus: Stabilization of Mycobacterium tuberculosis glutamate racemase assessed as change in melting temperature by sypro-orange dye-based fluorescence assay.
Series [14] has the same target. The series can be described thus: Stabilization of Mycobacterium tuberculosis glutamate racemase bound to D-glutamate assessed as change in melting temperature by sypro-orange dye-based fluorescence assay.

≈ marks a conversion by molar mass, not a printed value.

As to `O=C(NCc1ccccc1)Nc1cccc(-c2nc3ccccc3o2)c1`, in [1], the MIC (usually the least concentration at which growth counts as inhibited) worked out at 72.8 µM (≈ 25 µg/mL). Besides, the Activity with RAW264.7 is 2.12%.
For `O=C(Nc1ccc([N+](=O)[O-])cc1)Nc1cccc(-c2nc3ccccc3o2)c1`, in that order: 67 µM (≈ 25.1 µg/mL) and 95.11%.
As to `CC[C@@H](CO)NCCN[C@@H](CC)CO` [ETHAMBUTOL], the MIC turned out to be 7.89 µM (≈ 1.61 µg/mL) in [1], 3.82 µM in series [2] and 3.82 µM in series [3].
In the case of `NNC(=O)c1ccncc1` [ISONIAZID], the MIC in series [1] stood at 0.78 µM (≈ 0.107 µg/mL); in [2] it was 0.78 µM; in series [3], 0.78 µM. Besides, the entries for the “log(activity)” value (in [4]; in the series with Mycobacterium marinum [5]; in series [6]) were 1.2, 2.5 and 1.4, respectively.
Take `Cc1ccc(NC(=S)Nc2cccc(-c3nc4ccccc4o3)c2)cc1`: 69.5 µM (≈ 25 µg/mL) was the least that counted as inhibitory in [1] (MIC). Also, the Activity with RAW264.7 was 99.14%.
For the compound `Cc1ccc2oc(-c3cccc(NC(=S)Nc4ccc(F)cc4)c3)nc2c1`, it took 2.16 µM (≈ 0.815 µg/mL) to inhibit growth in series [1] (MIC). Also, the “log(activity)” value in [4] came to 0.8; in series [6], 2.5. The Activity in the series with RAW264.7 is 81.92%.
For `COc1ccc(NC(=O)Nc2cccc(-c3nc4ccccc4o3)c2)cc1`, the figures for the MIC in series [1], in series [2] and in series [3] were 69.3 µM (≈ 24.9 µg/mL), 69.3 µM and 69.3 µM, respectively. In the series with RAW264.7, the Activity stood at 17.26%.
`Cc1ccc2oc(-c3cccc(NC(=O)Nc4ccccc4)c3)nc2c1`: the MIC in series [1] was found to be 72.9 µM (≈ 25 µg/mL); in [2], 72.9 µM; in series [3] it was 72.9 µM. For the same compound, in the series with RAW264.7, the Activity was found to be 10.15%.
`O=C(Nc1ccccc1)Nc1cccc(-c2nc3ccccc3o2)c1`: inhibition of growth in [1] (MIC) required 75.1 µM (≈ 24.7 µg/mL). Further, in the series with RAW264.7, the Activity stood at 48.38%.
Consider `Cc1ccc(NC(=O)Nc2cccc(-c3nc4ccccc4o3)c2)cc1`, for which the MIC worked out at 36.2 µM (≈ 12.4 µg/mL) in series [1], 36.2 µM in series [2] and 36.2 µM in series [3]. The Activity in the series on RAW264.7 is on record as 1.09%.
In [1], `Cc1ccc2oc(-c3cccc(NC(=O)Nc4ccc(Cl)cc4)c3)nc2c1` registered an MIC of 66.3 µM (≈ 25.1 µg/mL). Moreover, in the series on RAW264.7, the Activity is 1.09%.
With `Cc1ccc2oc(-c3cccc(NC(=S)Nc4ccc(Cl)cc4)c3)nc2c1`, the Tm was 49.8 °C in series [7] and 51.9 °C in series [8]. Also, the MIC in series [1] is 8.72 µM (≈ 3.43 µg/mL); in [2], 2.01 µM; in series [3] it was 2.01 µM. Moreover, the MBC – broadly, the lowest tested concentration that kills the bacteria rather than only halting them – in series [9] is 25.4 µM (≈ 10 µg/mL). In addition, the Activity result in series [10] was “Tde”; in the series on RAW264.7, 55.82%. Besides, the figures for the “log(activity)” value (in [4]; with Mycobacterium marinum [11]; in [6]) were 2.4, 3.4 and 2.5, respectively. Besides, the Ratio in [12] is given as 4.
For the compound `Cc1ccc2oc(-c3cccc(NC(=S)Nc4ccccc4)c3)nc2c1`, the MIC in series [1] is 69.6 µM (≈ 25 µg/mL); in series [2] it was 8.69 µM; in [3], 8.69 µM. The Activity in the series with RAW264.7 was found to be 87.32%.
In [1], `COc1ccc(NC(=O)Nc2cccc(-c3nc4cc(C)ccc4o3)c2)cc1` registered an MIC of 67.9 µM (≈ 25.4 µg/mL). In the series on RAW264.7, the Activity came out at 11.09%.
Consider `O=C(Nc1ccc(F)cc1)Nc1cccc(-c2nc3ccccc3o2)c1`, for which the minimum inhibitory concentration (MIC) in series [1] came to 72.1 µM (≈ 25.1 µg/mL); in series [2], 72.1 µM; in series [3], 72.1 µM. Also, the Activity in the series on RAW264.7 stood at 2.98%.
`S=C(NCc1ccccc1)Nc1cccc(-c2nc3ccccc3o2)c1`: the MIC stood at 69.2 µM (≈ 24.9 µg/mL) in series [1], 2.21 µM in series [2] and 2.21 µM in [3]. Also, the Activity in the series on RAW264.7 is on record as 47.21%.
Consider `O=C(Nc1ccc(Cl)cc1)Nc1cccc(-c2nc3ccccc3o2)c1`, for which the MIC in series [1] was 68.3 µM (≈ 24.9 µg/mL). Also, the Activity in the series with RAW264.7 is 38.91%.
Consider `O=[N+]([O-])c1ccc(NC(=S)Nc2cccc(-c3nc4ccccc4o3)c2)cc1`, for which the MIC in [1] was determined as 2.09 µM (≈ 0.816 µg/mL). Moreover, the “log(activity)” value is 0.8 in [4] and 2.5 in series [6]. For the same compound, in the series on RAW264.7, the Activity amounted to 88.12%.
In the case of `Cc1ccc(NC(=S)Nc2cccc(-c3nc4cc(C)ccc4o3)c2)cc1`, the MIC in series [1] turned out to be 77 µM (≈ 28.8 µg/mL); in series [2], 77 µM; in series [3], 77 µM. Also, the Activity in the series with RAW264.7 turned out to be 2.12%.
Regarding `COc1c(N2C[C@@H]3CCCN[C@@H]3C2)c(F)cc2c(=O)c(C(=O)O)cn(C3CC3)c12` [MOXIFLOXACIN], the “log(activity)” value in [4] is 2; in the series with Mycobacterium marinum [5] it was 2.4; in [6] it was 0.3.
Compound `S=C(Nc1ccc(Cl)cc1)Nc1cccc(-c2nc3ccccc3o2)c1` had an MIC in series [1] of 63.9 µM (≈ 24.3 µg/mL). Further, the Activity with RAW264.7 is 22.81%.
For `Cc1ccc2oc(-c3cccc(NC(=S)NCc4ccccc4)c3)nc2c1`, in that order: 2.05 µM (≈ 0.766 µg/mL) and 38.91%.
On to `CO[C@H]1/C=C/O[C@@]2(C)Oc3c(C)c(O)c4c(O)c(c(/C=N/N5CCN(C)CC5)c(O)c4c3C2=O)NC(=O)/C(C)=C\C=C\[C@H](C)[C@H](O)[C@@H](C)[C@@H](O)[C@@H](C)[C@H](OC(C)=O)[C@@H]1C` [RIFAMPIN], for which the MIC in series [1] worked out at 0.21 µM (≈ 0.173 µg/mL); in series [2], 0.21 µM; in [3] it was 0.21 µM. Further, the “log(activity)” value in [4] is reported as 1.5; in series [6] it was 0.8.
In turn, `Cc1ccc2oc(-c3cccc(NC(=O)Nc4ccc(F)cc4)c3)nc2c1` gave an MIC in series [1] of 69.3 µM (≈ 25.1 µg/mL). Moreover, the Activity in the series with RAW264.7 turned out to be 3.17%.
For `S=C(Nc1ccccc1)Nc1cccc(-c2nc3ccccc3o2)c1`, in that order: 19.3 µM (≈ 6.67 µg/mL) and 96.23%.
Consider `Cc1ccc2oc(-c3cccc(NC(=O)NCc4ccccc4)c3)nc2c1`, for which the ΔTm (in general, the shift of the melting midpoint relative to a reference) was 3.2 °C in [13] and 2 °C in series [14].
For the compound `CC(C)c1ccc(NC(=O)Nc2cccc(-c3nc4ccccc4o3)c2)cc1`, in [1], the MIC amounted to 81.2 µM (≈ 30.2 µg/mL). Moreover, in the series on RAW264.7, the Activity was 3.52%.
With `Fc1ccc(NC(=S)Nc2cccc(-c3nc4ccccc4o3)c2)cc1`, in [1], the MIC worked out at 4.37 µM (≈ 1.59 µg/mL). In [9], this compound registered an MBC of 27.5 µM (≈ 9.98 µg/mL). Further, the “log(activity)” value in series [4] is recorded as 0.4; in [6], 0.2. The Activity with RAW264.7 was 96.02%.
Consider `Cc1ccc2oc(-c3cccc(NC(=S)Nc4ccc([N+](=O)[O-])cc4)c3)nc2c1`, for which the results for the MIC in [1], in series [2] and in series [3] were 61.9 µM (≈ 25 µg/mL), 1.91 µM and 1.91 µM, respectively. The Activity with RAW264.7 was found to be 98.1%.

The values above are taken from ChEMBL document CHEMBL4251635, “Identification and development of benzoxazole derivatives as novel bacterial glutamate racemase inhibitors” (Eur J Med Chem, 2018).
